In ChEMBL document CHEMBL1123709, “Affinity labels for beta-adrenoceptors: preparation and properties of alkylating beta-blockers derived from indole” (J Med Chem, 1987):

Experiments:
Adrenergic receptor beta [1] = target: T1, Adrenergic receptor beta (Rattus norvegicus, UniProt P18090+P10608+P26255); experiment: Binding affinity against beta adrenergic receptor from rat heart tissues was determined; type: protein assay
Adrenergic receptor beta [2] = target: T1, Adrenergic receptor beta; experiment: Binding affinity against beta adrenergic receptor from rat lung tissues was determined; type: protein assay
Adrenergic receptor beta [3] = target: T1, Adrenergic receptor beta; experiment: Binding affinity against the [3H]dihydroalprenolol binding to beta adrenergic receptor of rat lung reticulocytes pretreated with alkylating beta-blockers
Adrenergic receptor beta [4] = target: T1, Adrenergic receptor beta; experiment: Binding affinity against the [3H]dihydroalprenolol binding sites on beta adrenergic receptor of rat heart reticulocytes pretreated with alkylating beta-blockers
[5] = target: T2, Adrenergic receptor beta (Rattus norvegicus) (UniProt P18090+P10608+P26255); experiment: Concentration of binding sites of protein for [3H]dihydroalprenolol binding sites on beta adrenergic receptor of rat heart reticulocytes was determined
[6] = target: T2, Adrenergic receptor beta (Rattus norvegicus); experiment: Percent potency for irreversible blockade of the [3H]dihydroalprenolol binding to beta adrenergic receptor of rat heart reticulocytes pretreated with alkylating beta blockers at concentration of 1 x 10e-7 M
Adrenergic receptor beta [7] = target: T1, Adrenergic receptor beta; experiment: Binding affinity against the [3H]dihydroalprenolol binding to beta adrenergic receptor of rat heart reticulocytes pretreated with alkylating beta-blockers
[8] = target: T2, Adrenergic receptor beta (Rattus norvegicus); experiment: Percent potency for irreversible blockade of the [3H]dihydroalprenolol binding to beta adrenergic receptor of rat heart reticulocytes pretreated with alkylating beta blockers at concentration of 1 x 10e-6 M

C=CCc1ccccc1OCC(O)CNC1(C)CCC(C(C)(C)NC(=O)CBr)CC1 (stereo unspecified) [BROMOACETYL ALPRENOLOL MENTHANE] was tested, and the Ki (Adrenergic receptor beta [1]) was 391 nM and the Ki (Adrenergic receptor beta [2]) was 126 nM.
CC1(NC(=O)CBr)CCC(C(C)(C)NCC(O)COc2cccc3[nH]ccc23)CC1 (stereo unspecified) showed a Kd (Adrenergic receptor beta [3]) of 1.4 nM, a Ki (Adrenergic receptor beta [1]) of 22.6 nM and a Ki (Adrenergic receptor beta [2]) of 4.46 nM. For the same compound, the Kd (Adrenergic receptor beta [4]) was 2 nM.
CC1(NCC(O)COc2cccc3[nH]c(C#N)cc23)CCC(C(C)(C)NC(=O)CBr)CC1 (stereo unspecified) showed a Kd (Adrenergic receptor beta [3]) of 1 nM, a Bmax (fM (mg of protein)-1) [5] of 11 and a Blockade [6] of 89%. It also gave a Kd (Adrenergic receptor beta [7]) of 1.6 nM, a Ki (Adrenergic receptor beta [1]) of 0.61 nM and a Ki (Adrenergic receptor beta [2]) of 1.49 nM. For the same compound, the Blockade [8] was 95%.
Compound CC1(NC(=O)CBr)CCC(C(C)(C)NCC(O)COc2cccc3[nH]c(C#N)cc23)CC1 (stereo unspecified) has a Kd (Adrenergic receptor beta [3]) of 1.2 nM, a Kd (Adrenergic receptor beta [7]) of 1.6 nM and a Ki (Adrenergic receptor beta [1]) of 1.83 nM. It also gave a Ki (Adrenergic receptor beta [2]) of 2.78 nM.
With C=CCc1ccccc1OCC(O)CNC(C)(C)C1CCC(C)(NC(=O)CBr)CC1 (stereo unspecified) the Ki (Adrenergic receptor beta [1]) was 31.2 nM and the Ki (Adrenergic receptor beta [2]) was 19.8 nM.
With CC1(NCC(O)COc2cccc3[nH]ccc23)CCC(C(C)(C)NC(=O)CBr)CC1 (stereo unspecified) the Ki (Adrenergic receptor beta [1]) was 0.46 nM and the Ki (Adrenergic receptor beta [2]) was 1.34 nM.
